The results in this text go back to patent EP4667464A1 (Cyrus Therapeutics Inc., priority 2023, dated 2024).

Where two headings read alike, the source gives them in different places. Where only a bound is given, the exact number is not on record here.

In experiment [1] the test system is lung cancer cell line NCI-H358 having the KRAS G12C variant. Kind of experiment: Cancer cell growth inhibition, 3D spheroids (CellTiter-Glo 3D). It is filed as cell-based. Conditions: Homo sapiens, NCI-H358, 120 h, read-out: H358 cell viability. As to the method:
Thereafter, the plate with the cells cultured was adapted to room temperature for 10 minutes, and then 50 µL of CellTiter-Glo® 3D Cell Viability Assay (PROMEGA, G9683) solution was dispensed, and reacted on a horizontal stirrer at a speed of 300 RPM for 30 minutes to induce the cell lysis. […] Thereafter, based on the measured values, the degree of cell growth in the well treated with each compound was calculated when the final cell density value of the well not treated with the test substance was set to 100%.

For a further experiment, the target named is T1, SOS1 (Homo sapiens, UniProt Q07889).
T1 construct: HIS-SOS1cat (160 nM; Cytoskeleton, US); His (N); purchased Cytoskeleton
T1 sequence (Q07889 564-1049 limits assumed): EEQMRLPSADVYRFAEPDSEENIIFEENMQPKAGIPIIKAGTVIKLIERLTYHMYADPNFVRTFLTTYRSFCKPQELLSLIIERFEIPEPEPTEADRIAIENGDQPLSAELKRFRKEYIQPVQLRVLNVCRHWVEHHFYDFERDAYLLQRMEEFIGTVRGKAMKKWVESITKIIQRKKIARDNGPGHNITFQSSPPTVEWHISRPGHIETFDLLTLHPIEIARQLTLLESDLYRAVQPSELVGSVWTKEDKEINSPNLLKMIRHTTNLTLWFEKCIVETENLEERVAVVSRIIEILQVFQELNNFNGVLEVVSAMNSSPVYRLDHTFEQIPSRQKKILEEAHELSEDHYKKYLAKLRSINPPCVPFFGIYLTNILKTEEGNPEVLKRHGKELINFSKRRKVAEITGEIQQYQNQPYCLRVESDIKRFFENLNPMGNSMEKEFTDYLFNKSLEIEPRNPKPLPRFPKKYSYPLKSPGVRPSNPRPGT
The experiment in a line: SOS-catalyzed nucleotide exchange assay (HTRF, SOS1-mediated GTP loading of KRAS G12D). It is filed as biochemical.

In a further experiment the target is T2, KRAS G12C::SOS1 (Homo sapiens, UniProt Q07889).
T2 construct: purchased CISBIO 64KRASG12PEH
T2 sequence (Q07889 1-1333): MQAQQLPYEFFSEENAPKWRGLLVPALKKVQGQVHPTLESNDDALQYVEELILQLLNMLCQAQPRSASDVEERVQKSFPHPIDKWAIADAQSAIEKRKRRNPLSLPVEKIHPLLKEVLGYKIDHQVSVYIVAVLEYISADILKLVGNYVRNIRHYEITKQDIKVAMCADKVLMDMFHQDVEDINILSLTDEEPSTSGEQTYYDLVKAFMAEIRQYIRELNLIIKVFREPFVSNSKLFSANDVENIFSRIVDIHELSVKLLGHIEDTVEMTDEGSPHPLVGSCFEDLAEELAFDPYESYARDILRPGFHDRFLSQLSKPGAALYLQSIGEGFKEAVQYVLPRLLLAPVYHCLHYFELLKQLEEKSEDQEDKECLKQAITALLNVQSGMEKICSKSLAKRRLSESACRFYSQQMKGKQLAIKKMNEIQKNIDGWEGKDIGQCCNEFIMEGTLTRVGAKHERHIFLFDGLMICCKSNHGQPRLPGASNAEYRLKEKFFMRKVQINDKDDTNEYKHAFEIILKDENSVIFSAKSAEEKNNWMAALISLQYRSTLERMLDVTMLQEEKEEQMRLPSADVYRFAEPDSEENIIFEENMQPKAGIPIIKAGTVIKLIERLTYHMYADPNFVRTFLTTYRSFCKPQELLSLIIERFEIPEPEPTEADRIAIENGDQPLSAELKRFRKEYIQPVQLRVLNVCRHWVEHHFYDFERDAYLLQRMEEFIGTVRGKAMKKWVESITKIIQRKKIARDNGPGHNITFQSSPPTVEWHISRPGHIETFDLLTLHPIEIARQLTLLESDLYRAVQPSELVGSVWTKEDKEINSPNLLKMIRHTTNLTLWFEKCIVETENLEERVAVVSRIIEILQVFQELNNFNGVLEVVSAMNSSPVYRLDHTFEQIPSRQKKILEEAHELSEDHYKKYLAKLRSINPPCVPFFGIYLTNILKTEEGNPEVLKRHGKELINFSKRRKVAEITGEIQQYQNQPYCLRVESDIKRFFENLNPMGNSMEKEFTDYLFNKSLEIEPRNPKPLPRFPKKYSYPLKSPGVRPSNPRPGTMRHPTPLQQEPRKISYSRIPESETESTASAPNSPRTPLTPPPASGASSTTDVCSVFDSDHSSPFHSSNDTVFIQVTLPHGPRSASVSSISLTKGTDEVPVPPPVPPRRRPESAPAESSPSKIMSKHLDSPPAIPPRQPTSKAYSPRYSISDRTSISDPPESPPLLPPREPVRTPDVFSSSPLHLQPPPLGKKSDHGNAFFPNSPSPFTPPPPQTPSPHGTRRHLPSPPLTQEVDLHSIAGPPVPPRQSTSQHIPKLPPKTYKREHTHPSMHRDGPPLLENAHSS
The experiment in a line: KRAS G12C::SOS1 protein-protein interaction (PPI) inhibition assay (HTRF). In kind it is binding. In outline: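 Compounds, at eight 3-fold dilutions from 3 µM, were mixed with GTP-loaded Tag1-KRAS G12C, Tag2-SOS1 and a terbium-cryptate donor plus XL665 acceptor antibody pair. After 2 h at room temperature, time-resolved FRET reported the KRAS–SOS1 interaction.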
(In TR-FRET formats the signal depends on donor and acceptor labels being close together.)

Where [2] appears, read: 3D spheroids, 0.002-10 µM, 5 days.
[3] abbreviates: GST-KRAS G12D, HIS-SOS1cat, compound 128 pM to 10 µM, read-out: SOS-catalyzed nucleotide exchange assay.
The mark [4] stands for this setting: 8 concentrations from 3 µM, three replicates, read-out: KRAS G12C::SOS1 PPI.

For `[2H]C([2H])([2H])n1nncc1-c1cncc(-n2nc(C(=O)N[C@H](C)c3cc(N)cc(C(F)(F)F)c3)ccc2=O)c1` [Example 1-58], the figures for the IC50 (in experiment [1] (setting [2]); at SOS1 (setting [3]); at KRAS G12C::SOS1 (setting [4])) were less than 1000 nM, less than 50 nM and less than 50 nM, respectively.
On to `C[C@@H](NC(=O)c1cc(CO)c(=O)n(-c2cncc(-c3cnnn3C)c2)n1)c1cccc(C(F)(F)F)c1F` [Example 1-61, N-{(R)-1-[2-fluoro-3-(trifluoromethyl)phenyl]ethyl}-5-(hydroxymethyl)-1-[5-(1-methyl-1H-1,2,3-triazol-5-yl)-3-pyridyl]-6-oxo-1,6-dihydropyridazine-3-carboxamide], for which the values for the IC50 (in experiment [1] (setting [2]); on SOS1 (setting [3]); on KRAS G12C::SOS1 (setting [4])) were less than 1000 nM, 50 to 150 nM and less than 50 nM, respectively.
For `CC(=O)c1cc(C(=O)N[C@H](C)c2cccc(C(F)(F)F)c2F)nn(-c2cncc(-c3cnnn3C)c2)c1=O` [Example 1-62, N-{(R)-1-[2-fluoro-3-(trifluoromethyl)phenyl]ethyl}-5-acetyl-1-[5-(1-methyl-1H-1,2,3-triazol-5-yl)-3-pyridyl]-6-oxo-1,6-dihydropyridazine-3-carboxamide] the same measures were less than 1000 nM, 50 to 150 nM and less than 50 nM.
For `C[C@@H](NC(=O)c1cc(-c2ccccc2)c(=O)n(-c2cncc(-c3cnnn3C)c2)n1)c1cccc(C(F)(F)F)c1F` [Example 1-63, N-{(R)-1-[2-fluoro-3-(trifluoromethyl)phenyl]ethyl}-1-[5-(1-methyl-1H-1,2,3-triazol-5-yl)-3-pyridyl]-6-oxo-5-phenyl-1,6-dihydropyridazine-3-carboxamide] the same measures were less than 1000 nM, 50 to 150 nM and 50 to 150 nM.
For `C[C@@H](NC(=O)c1cc(C2=CCCCC2)c(=O)n(-c2cncc(-c3cnnn3C)c2)n1)c1cccc(C(F)(F)F)c1F` [Example 1-64, N-{(R)-1-[2-fluoro-3-(trifluoromethyl)phenyl]ethyl}-5-(1-cyclohexen-1-yl)-1-[5-(1-methyl-1H-1,2,3-triazol-5-yl)-3-pyridyl]-6-oxo-1,6-dihydropyridazine-3-carboxamide] the same measures were 1000 to 3000 nM, greater than 150 nM and greater than 150 nM.
For the compound `C[C@@H](NC(=O)c1ccc(=O)n(-c2cc(-c3cnnn3C3CC3)cnc2F)c1)c1cccc(C(F)(F)F)c1F` [Example 1-67, (R)-5'-(1-cyclopropyl-1H-1,2,3-triazol-5-yl)-2'-fluoro-N-(1-(2-fluoro-3-(trifluoromethyl)phenyl)ethyl)-2-oxo-2H-[1,3'-bipyridine]-5-carboxamide], the IC50 was less than 1000 nM in experiment [1] (setting [2]), less than 50 nM at SOS1 (setting [3]) and 50 to 150 nM at KRAS G12C::SOS1 (setting [4]).
As for `C[C@@H](NC(=O)c1ccc(=O)n(-c2cncc(-c3cnnn3C)c2)n1)c1cc(N)cc(C(F)F)c1` [Example 2, N-[(1R)-1-[3-amino-5-(difluoromethyl)phenyl]ethyl]-1-[5-(3-methyltriazol-4-yl)-3-pyridyl]-6-oxo-pyridazine-3-carboxamide], the IC50 in experiment [1] (setting [2]) was less than 1000 nM; against SOS1 it was 50 to 150 nM; against KRAS G12C::SOS1, 50 to 150 nM.
In the case of `C[C@@H](NC(=O)c1ccc(=O)n(-c2cncc(-c3cnnn3C)c2)n1)c1cc(N)cc(C(F)(F)F)c1F` [Example 2-1, N-[(1R)-1-[5-amino-2-fluoro-3-(trifluoromethyl)phenyl]ethyl]-1-[5-(3-methyltriazol-4-yl)-3-pyridyl]-6-oxo-pyridazine-3-carboxamide], the IC50 is less than 1000 nM in experiment [1] (setting [2]), less than 50 nM on SOS1 (setting [3]) and less than 50 nM at KRAS G12C::SOS1 (setting [4]).
For the compound `Cc1c([C@@H](C)NC(=O)c2ccc(=O)n(-c3cncc(-c4ccnn4C)c3)n2)cc(N)cc1C(F)(F)F` [Example 2-4, N-[(1R)-1-[5-amino-2-methyl-3-(trifluoromethyl)phenyl]ethyl]-1-[5-(2-methylpyrazol-3-yl)-3-pyridyl]-6-oxo-pyridazine-3-carboxamide], the figures for the IC50 (in experiment [1] (setting [2]); at SOS1 (setting [3]); at KRAS G12C::SOS1 (setting [4])) were less than 1000 nM, less than 50 nM and less than 50 nM, respectively.
As to `Cc1cc(C(=O)N[C@H](C)c2cc(N)cc(C(F)(F)F)c2F)nn(-c2cncc(-c3cnnn3C)c2)c1=O` [Example 2-5, N-[(1R)-1-[5-amino-2-fluoro-3-(trifluoromethyl)phenyl]ethyl]-5-methyl-1-[5-(3-methyltriazol-4-yl)-3-pyridyl]-6-oxo-pyridazine-3-carboxamide], the IC50 in experiment [1] (setting [2]) is less than 1000 nM; at SOS1 (setting [3]), less than 50 nM; at KRAS G12C::SOS1 (setting [4]) it was less than 50 nM.
Regarding `Cc1c([C@@H](C)NC(=O)c2cc(C)c(=O)n(-c3cncc(-c4cnnn4C)c3)n2)cc(N)cc1C(F)(F)F` [Example 2-6, N-[(1R)-1-[5-amino-2-methyl-3-(trifluoromethyl)phenyl]ethyl]-5-methyl-1-[5-(3-methyltriazol-4-yl)-3-pyridyl]-6-oxo-pyridazine-3-carboxamide], the IC50 was less than 1000 nM in experiment [1] (setting [2]), less than 50 nM at SOS1 (setting [3]) and less than 50 nM on KRAS G12C::SOS1 (setting [4]).
Turning to `Cc1cc(C(=O)N[C@H](C)c2cc(N)cc(C(F)F)c2)nn(-c2cncc(-c3cnnn3C)c2)c1=O` [Example 2-7, N-[(1R)-1-[3-amino-5-(difluoromethyl)phenyl]ethyl]-5-methyl-1-[5-(3-methyltriazol-4-yl)-3-pyridyl]-6-oxo-pyridazine-3-carboxamide], the figures for the IC50 (in experiment [1] (setting [2]); on SOS1 (setting [3]); on KRAS G12C::SOS1 (setting [4])) were greater than 3000 nM, less than 50 nM and less than 50 nM, respectively.
For the compound `C[C@@H](NC(=O)c1cc(C#N)c(=O)n(-c2cncc(-c3cnnn3C)c2)n1)c1cccc(C(F)(F)F)c1F` [Example 3-2, 5-cyano-N-{(1R)-1-[2-fluoro-3-(trifluoromethyl)phenyl]ethyl}-1-[5-(1-methyl-1H-1,2,3-triazol-5-yl)-3-pyridyl]-6-oxo-1,6-dihydropyridazine-3-carboxamide], the IC50 in experiment [1] (setting [2]) was less than 1000 nM; at SOS1 (setting [3]) it was 50 to 150 nM; on KRAS G12C::SOS1 (setting [4]), 50 to 150 nM.
In the case of `C[C@@H](NC(=O)c1ccc(=O)n(-c2cnnc(-c3cnnn3C)c2)n1)c1cccc(C(F)(F)F)c1F` [Example 4, N-[(1R)-1-[2-fluoro-3-(trifluoromethyl)phenyl]ethyl]-1-[6-(3-methyltriazol-4-yl)pyridazin-4-yl]-6-oxo-pyridazine-3-carboxamide], the IC50 in experiment [1] is greater than 3000 nM; against SOS1 it was greater than 150 nM; on KRAS G12C::SOS1 it was greater than 150 nM.
